Measured values from paper PMC5571287 (Antimicrobial Agents and Chemotherapy, 2017).
Like-named read-outs stand apart in the source and are kept apart here.

Key:
[1] = test system: human mitochondrial polymerase; assay: Human polymerase inhibition in vitro (data not shown); type: biochemical; details: up to 1 μM
[2] = test system: RSV A Long; assay: RSV A Long-infected cotton rats, lung homogenate viral load and transcripts; type: in vivo
[3] = test system: RSV A2 protein expression; assay: Western blotting of RSV proteins in RSV A2-infected HEp-2 cells; type: cell-based, respiratory syncytial virus; details: HEp-2, 3 days postinfection
Protocol: HEp-2 cells were seeded in 6-well plates at a density of 3 × 10^5/well (2 ml/well) 24 h before experimentation and were then treated with compounds (10 μl/well), simultaneously infected with RSV A2 (MOI, 1), and incubated for 72 h. Cells were washed with PBS and collected by scraping in 200 μl of PBS with protease and phosphatase inhibitor cocktail (PPI; Sigma-Aldrich; MSSAFE-1VL 1× in PBS), followed by two further washes with 200 μl of PBS, and the cell suspension was centrifuged to pellet. Radioimmunoprecipitation assay (RIPA) buffer (50 μl) containing 50 mM Tris-HCl (pH 7.4), 150 mM NaCl, 1% (vol/vol) NP-40, 0.25% (wt/vol) sodium deoxycholate, and PPI was applied to the cell pellet, which was vortexed and incubated for 30 min, on ice with further cell disruptions every 10 min. The protein concentration of the supernatant after centrifugation was determined by Bradford assay. The lysate containing 30 μg of protein was separated by electrophoresis on a 4 to 12% gradient bis-Tris polyacrylamide gel (Life Technologies; NP0335BOX) and then transferred to a nitrocellulose membrane using the iBlot gel transfer device (Life Technologies). The membrane was blocked with blocking buffer (TBS/T; 20 mM TBS and 0.1% Tween 20 with 5% skim milk) for 1 h at RT and incubated with anti-RSV F protein antibody (Abcam ab43812; 1:1,000) overnight at 4°C for F protein detection. […]

[4] = test system: PC786 escape mutant (Y1631H) of RSV A2; type: cell-based, respiratory syncytial virus; details: CPE
[5] = molecular target: minigenome construct comprising the L protein, M2-1, N, and P of RSV A2 (Human respiratory syncytial virus A, UniProt P28887); assay: cell-based
Chain of minigenome construct comprising the L protein, M2-1, N, and P of RSV A2 (P28887 whole entry): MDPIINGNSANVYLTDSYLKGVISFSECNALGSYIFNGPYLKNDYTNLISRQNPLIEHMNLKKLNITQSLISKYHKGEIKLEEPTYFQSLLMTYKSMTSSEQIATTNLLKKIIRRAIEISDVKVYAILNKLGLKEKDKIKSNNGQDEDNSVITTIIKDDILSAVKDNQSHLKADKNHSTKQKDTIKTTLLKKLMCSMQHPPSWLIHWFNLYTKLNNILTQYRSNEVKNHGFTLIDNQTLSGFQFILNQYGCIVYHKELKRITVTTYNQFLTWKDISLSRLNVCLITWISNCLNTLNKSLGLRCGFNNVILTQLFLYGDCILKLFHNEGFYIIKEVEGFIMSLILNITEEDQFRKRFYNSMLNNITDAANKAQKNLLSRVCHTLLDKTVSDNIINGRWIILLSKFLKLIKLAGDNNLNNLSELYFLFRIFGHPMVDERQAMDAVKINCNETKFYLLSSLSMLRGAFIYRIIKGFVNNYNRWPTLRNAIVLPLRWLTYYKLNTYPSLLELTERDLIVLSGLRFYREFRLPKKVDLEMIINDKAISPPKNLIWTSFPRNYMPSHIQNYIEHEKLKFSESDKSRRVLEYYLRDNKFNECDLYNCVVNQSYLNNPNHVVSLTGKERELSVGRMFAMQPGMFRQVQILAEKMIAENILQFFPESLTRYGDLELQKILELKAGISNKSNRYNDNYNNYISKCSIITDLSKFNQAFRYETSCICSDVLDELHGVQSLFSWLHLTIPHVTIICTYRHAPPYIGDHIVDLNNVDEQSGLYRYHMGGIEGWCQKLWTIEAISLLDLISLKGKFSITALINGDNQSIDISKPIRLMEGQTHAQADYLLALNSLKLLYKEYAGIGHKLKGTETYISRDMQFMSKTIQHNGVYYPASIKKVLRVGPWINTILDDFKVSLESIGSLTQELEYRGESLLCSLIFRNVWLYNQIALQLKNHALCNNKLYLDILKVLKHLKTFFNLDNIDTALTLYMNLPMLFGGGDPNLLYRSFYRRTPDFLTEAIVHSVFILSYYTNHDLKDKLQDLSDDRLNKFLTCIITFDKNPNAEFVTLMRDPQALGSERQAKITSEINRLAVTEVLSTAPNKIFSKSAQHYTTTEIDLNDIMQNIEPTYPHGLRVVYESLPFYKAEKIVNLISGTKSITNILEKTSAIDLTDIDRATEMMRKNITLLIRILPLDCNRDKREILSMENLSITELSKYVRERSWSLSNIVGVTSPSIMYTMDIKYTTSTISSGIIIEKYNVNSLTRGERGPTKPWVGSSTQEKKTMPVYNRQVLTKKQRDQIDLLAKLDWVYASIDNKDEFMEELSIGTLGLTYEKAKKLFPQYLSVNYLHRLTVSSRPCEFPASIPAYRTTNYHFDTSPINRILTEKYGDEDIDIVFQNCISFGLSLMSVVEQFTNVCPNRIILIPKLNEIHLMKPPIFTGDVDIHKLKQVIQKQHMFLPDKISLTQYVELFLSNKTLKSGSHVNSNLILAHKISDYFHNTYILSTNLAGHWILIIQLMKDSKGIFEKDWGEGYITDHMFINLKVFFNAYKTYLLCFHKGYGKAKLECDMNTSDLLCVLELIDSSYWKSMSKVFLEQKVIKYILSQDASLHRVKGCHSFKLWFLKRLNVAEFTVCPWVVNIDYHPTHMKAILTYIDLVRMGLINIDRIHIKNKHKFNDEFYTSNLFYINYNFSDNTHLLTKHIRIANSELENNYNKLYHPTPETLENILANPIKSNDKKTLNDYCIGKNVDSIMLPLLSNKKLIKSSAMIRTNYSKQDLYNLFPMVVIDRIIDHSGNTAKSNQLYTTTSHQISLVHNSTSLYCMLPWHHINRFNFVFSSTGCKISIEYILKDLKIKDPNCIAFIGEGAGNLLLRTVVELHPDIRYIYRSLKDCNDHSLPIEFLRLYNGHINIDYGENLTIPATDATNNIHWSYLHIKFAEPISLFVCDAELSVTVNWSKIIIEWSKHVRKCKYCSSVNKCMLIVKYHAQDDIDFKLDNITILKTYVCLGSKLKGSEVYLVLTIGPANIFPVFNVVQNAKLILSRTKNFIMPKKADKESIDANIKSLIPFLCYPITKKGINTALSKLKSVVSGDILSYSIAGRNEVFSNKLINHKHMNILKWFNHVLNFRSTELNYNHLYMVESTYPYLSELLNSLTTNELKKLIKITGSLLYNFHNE
Chain of minigenome construct comprising the L protein, M2-1, N, and P of RSV A2 (P03421 whole entry, further chain): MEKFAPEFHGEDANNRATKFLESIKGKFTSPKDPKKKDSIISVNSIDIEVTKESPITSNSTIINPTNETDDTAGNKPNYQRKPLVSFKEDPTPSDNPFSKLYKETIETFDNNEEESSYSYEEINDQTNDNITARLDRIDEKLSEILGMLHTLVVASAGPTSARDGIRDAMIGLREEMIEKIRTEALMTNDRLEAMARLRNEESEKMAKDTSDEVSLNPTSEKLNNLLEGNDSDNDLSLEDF

[6] = test system: RSV A2; assay: CPE assay, RSV A2 in HEp-2 cells (resazurin); type: cell-based, respiratory syncytial virus; details: human respiratory syncytial virus, HEp-2
[7] = test system: RSV A2; assay: RSV A2 infection of ALI-cultured human airway epithelial cells, plaque assay of apical wash; type: cell-based, respiratory syncytial virus; details: MOI 0.01
Protocol: On the day of infection (day 0), the apical surface of each insert was washed once with 300 μl of sterile PBS and the inserts were then transferred to new 24-well plates containing 780 μl of fresh MucilAir culture medium (Epithelix Sàrl). […] The virus inoculum was removed with a pipette and inserts were washed twice with 300 μl of sterile PBS. A day 0 sample was harvested by adding 300 μl of sterile PBS to the apical surface of each well for 5 min. The 300-μl sample was then removed and transferred to 0.5-ml tubes containing 100 μl of 50% sucrose dissolved in PBS, and the tubes were stored at -80°C. This harvesting procedure was repeated daily until day 7. PC786 was dosed apically onto MucilAir inserts. […] The dosing regimen was performed daily on day 0 to day 6 following each sample collection. On day 5, the basal medium was removed from every well and replenished with fresh MucilAir culture medium as a necessary maintenance step for ALI culture cells. Virus titer in the apical wash samples was determined by plaque assay. […] Cells were washed twice with PBS before 150 μl of secondary antibody (goat anti-mouse HRP conjugate [Dako Ltd., Ely, UK; P044701-2]), diluted 1:400 in blocking buffer, was added to cells for 1 h at RT, with shaking. […] Each well received 150 μl of development substrate (sigmaFAST […]; Sigma-Aldrich) until plaques were visible. Plaques were counted by eye and confirmed using light microscopy.

[8] = in vitro; details: rhesus monkey
[9] = test system: RSV B 9320; details: human respiratory syncytial virus
[10] = Antiviral panel: cytotoxicity; type: cell-based; details: human, Huh-7 cells with HCV GT1b replicon; Huh-7, GT1b replicon
[11] = test system: RSV A2; assay: Time-of-addition assay and MOI dependency, CPE (methylene blue) in HEp-2; type: cell-based; details: human respiratory syncytial virus
[12] = test system: Herpes simplex virus 1 (HF strain); assay: microbe, parasite or virus in culture; type: cell-based; details: Herpes simplex virus 1, Vero

Cc1cnc(N2CC3(CCOCC3)C2)c(C(=O)Nc2ccc(C(=O)N3CCc4cc(C(=O)Nc5c(C)cccc5F)sc4-c4ccccc43)cc2)c1 [PC786, N-(2-fluoro-6-methylphenyl)-6-(4-(5-methyl-2-(7-oxa-2-azaspiro[3.5]nonan-2-yl)nicotinamido)benzoyl)-5,6-dihydro-4H-benzo[b]thieno[2,3-d]azepine-2-carboxamide]
inhibitory effects on human mitochondrial polymerase [1]: no measurable inhibitory effects | IP-10 transcripts in lung homogenates ([2]; i.n. 0.33-10 mg/ml, day 4): dose-dependent inhibition | RANTES transcripts in lung homogenates ([2]; i.n. 0.33-10 mg/ml, day 4): dose-dependent inhibition | RSV NS-1 gene transcripts in lung homogenates ([2]; i.n. 0.33-10 mg/ml, day 4): dose-dependent inhibition | viral load in lung homogenates on day 4 ([2]; i.n. once daily days 0 to 3, doses of more than […] (165 μg/cotton rat)): lower than the detection limit | concentration above which no or little G, N, P, M, M2-1, and F1 protein bands were visible [3]: greater than 14 nM | IC50 ([4]; read-out: PC786 escape mutant IC50, N=3, after 6th passage): 17.9 nM | IC90 ([4]; read-out: PC786 escape mutant IC90, N=3): 1120 nM | inhibition at 0.14 µM ([5]; HEp-2, at 140 nM, read-out: maximum inhibition achieved): 100% | IC90 ([5]; luciferase, HEp-2, wild-type L protein): 1.54 nM | IC50 ([6]; RSV A2, laboratory, low-passage isolate study, read-out: CPE assay IC50): 0.96 nM | IC90 ([6]; RSV A2, laboratory, low-passage isolate study, read-out: CPE assay IC90): 1.82 nM | IC50 ([6]; read-out: RSV A2 IC50): 0.5 ± 0.0014 nM | IC90 ([6]; read-out: RSV A2 IC90): 0.63 ± 0.035 nM | viral replication in apical wash (plaque assay) ([7]; 5.6 nM apical once daily day 0 to day 6): did not peak until day 5 | viral replication in apical wash (plaque assay) ([7]; 28 nM apical once daily day 0 to day 6): viral replication was not detected until day 4 | viral quantity in apical wash (plaque assay) ([7]; 140 nM apical once daily day 0 to day 6): below detectable limits | CC50 [8]: > 14000 nM | IC50 ([9]; HEp-2, read-out: PCR IC50 (0.3 Log PFUe reduction) (converted)): 30.3 nM | IC90 ([9]; HEp-2, read-out: PCR IC90 (1 Log PFUe reduction) (converted)): 31 nM | CC50 at 3 days [10]: > 14000 nM | IC50 ([11]; HEp-2, 24 h, MOI 0.02, n = 3, read-out: IC50 at treatment time 24 h postinoculation): 0.85 nM | IC50 ([11]; HEp-2, 24 h, MOI 0.1, n = 3, read-out: IC50 at treatment time 24 h postinoculation): 1.09 nM | IC50 ([11]; HEp-2, 24 h, MOI 1.0, n = 3, read-out: IC50 at treatment time 24 h postinoculation): 0.5 nM | IC50 ([11]; HEp-2, 48 h, read-out: IC50 at treatment time 48 h postinoculation, MOI 0.02, n = 3): 0.94 nM | IC50 ([11]; HEp-2, 48 h, read-out: IC50 at treatment time 48 h postinoculation, MOI 0.1, n = 3): 2.36 nM | IC50 ([11]; HEp-2, 48 h, read-out: IC50 at treatment time 48 h postinoculation, MOI 1.0, n = 3): 0.46 nM | IC50 ([11]; HEp-2, 72 h, MOI 0.02, n = 3, read-out: IC50 at treatment time 72 h postinoculation): > 93.4 nM | IC50 ([11]; HEp-2, 72 h, MOI 0.1, n = 3, read-out: IC50 at treatment time 72 h postinoculation): > 140 nM | IC50 ([11]; HEp-2, 72 h, MOI 1.0, n = 3, read-out: IC50 at treatment time 72 h postinoculation): > 140 nM | IC50 ([11]; HEp-2, MOI 0.02, n = 3, CPE at 144 h, read-out: IC50 at treatment time 0 h postinoculation): 0.6 nM | IC50 ([11]; HEp-2, MOI 0.1, n = 3, CPE at 144 h, read-out: IC50 at treatment time 0 h postinoculation): 0.99 nM | IC50 ([11]; HEp-2, MOI 1.0, n = 3, CPE at 144 h, read-out: IC50 at treatment time 0 h postinoculation): 0.44 nM | IC90 or IC95 [12]: >14000 nM | IC50 ([12]; Human alphaherpesvirus 1): > 14000 nM
